Assay results as given in patent publication US6355799B1, “Substituted benzene compounds, process for their preparation, and herbicidal and defoliant compositions containing them” (ISK Americas Incorporated, priority 1997, dated 2002).

How the values were obtained:
Type in all cases: in vivo
[1] = test system: green foxtail (Setaria viridis, SETVI); assay: Post-emerge test, greenhouse herbicide activity screening; conditions: post-emerge, 14 days after application, rating scale 0-100
Outline: (§1)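 Rating: 0–100 visual injury, 14 DAA. Application: acetone, 187 l/ha, 15–1000 g ai/ha, flat-fan track sprayer with nozzle 40–45 cm above soil or canopy. Post-emerge runs used 0.25% v/v surfactant on 2–3 leaf plants.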

[2] = test system: ivyleaf morningglory (Ipomoea hederacea, IPOHE); assay: as above; conditions: post-emerge, 14 days after application, rating scale 0-100
Outline: as §1

[3] = test system: sicklepod (Cassia obtusifolia, CASOB); assay: as above; conditions: post-emerge, 14 days after application, rating scale 0-100
Outline: as §1

[4] = test system: johnsongrass (Sorghum halepense, SORHA); assay: as above; conditions: post-emerge, 14 days after application, rating scale 0-100
Outline: as §1

[5] = test system: redroot pigweed (Amaranthus retroflexus, AMARE); assay: as above; conditions: post-emerge, 14 days after application
Outline: as §1

[6] = test system: large crabgrass (Digitaria sanguinalis, DIGSA); assay: as above; conditions: post-emerge, 14 days after application, rating scale 0-100
Outline: as §1

[7] = test system: velvetleaf (Abutilon theophrasti, ABUTH); assay: as above; conditions: post-emerge, 14 days after application, rating scale 0-100
Outline: as §1

[8] = test system: lambsquarters (Chenopodium album, CHEAL); assay: as above; conditions: post-emerge, 14 days after application, rating scale 0-100
Outline: as §1

[9] = test system: barnyardgrass (Echinochloa crus-galli, ECHCG); assay: as above; conditions: post-emerge, 14 days after application, rating scale 0-100
Outline: as §1

[10] = test system: redroot pigweed (Amaranthus retroflexus, AMARE); assay: Pre-emerge test, greenhouse herbicide activity screening; conditions: pre-emerge; for phytotoxicity rating AMARE: 14 days after application, rating scale 0-100; for Pre-emerge Herbicidal Activity AMARE: phytotoxicity rating 0-100 at 14 days after application
Outline: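 Plants grown in 10 cm pots of sandy loam mix received acetone-dissolved compounds through a moving flat-fan nozzle. Doses ranged from 15 to 1000 g ai/ha. Pre-emerge pots were seeded one day earlier, post-emerge pots 8–21 days earlier. Fourteen days on, each pot was graded 0–100 for damage.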

[11] = test system: upland rice (Oryza sp., var. Tebonnet, RICE); assay: Pre-emerge test, crop safety; conditions: pre-emerge; for phytotoxicity rating RICE: 14 days after application, rating scale 0-100; for Pre-emerge Herbicidal Activity RICE: crop damage, phytotoxicity rating 0-100 at 14 days after application
Outline: (§2)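 Applied at 15–1000 g ai/ha from acetone in 187 l/ha spray volume. Post-emergence applications included 0.25% v/v non-ionic surfactant and reached plants sown 8–21 days before. Pre-emergence applications were incorporated by surface watering. Efficacy or crop damage was rated on a 0–100 scale after 14 days.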

[12] = test system: field corn (Zea mays L., var. Dekalb 535, CORN); assay: Pre-emerge test, crop safety; conditions: pre-emerge; for phytotoxicity rating CORN: 14 days after application, rating scale 0-100; for Pre-emerge Herbicidal Activity CORN: crop damage, phytotoxicity rating 0-100 at 14 days after application
Outline: as §2

[13] = test system: green foxtail (Setaria viridis, SETVI); assay: Pre-emerge test, greenhouse herbicide activity screening; conditions: pre-emerge; for phytotoxicity rating SETVI: 14 days after application, rating scale 0-100; for Pre-emerge Herbicidal Activity SETVI: phytotoxicity rating 0-100 at 14 days after application
Outline: (§3)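 Sandy loam pots; pre-emerge: sown 1 d pre-spray, surface-watered after, then bottom-watered. Post-emerge: sown 8–21 d before, 2–3 leaf stage, + 0.25% v/v NIS, bottom-watered. Acetone, 187 l/ha track spray, 15–1000 g ai/ha. 0–100 injury score, day 14.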

[14] = test system: ivyleaf morningglory (Ipomoea hederacea, IPOHE); assay: as above; conditions: pre-emerge; for phytotoxicity rating IPOHE: 14 days after application, rating scale 0-100; for Pre-emerge Herbicidal Activity IPOHE: phytotoxicity rating 0-100 at 14 days after application
Outline: as §3

[15] = test system: sicklepod (Cassia obtusifolia, CASOB); assay: as above; conditions: pre-emerge; for phytotoxicity rating CASOB: 14 days after application, rating scale 0-100; for Pre-emerge Herbicidal Activity CASOB: phytotoxicity rating 0-100 at 14 days after application
Outline: as §3

[16] = test system: johnsongrass (Sorghum halepense, SORHA); assay: as above; conditions: pre-emerge; for phytotoxicity rating SORHA: 14 days after application, rating scale 0-100; for Pre-emerge Herbicidal Activity SORHA: phytotoxicity rating 0-100 at 14 days after application
Outline: as §3

[17] = test system: large crabgrass (Digitaria sanguinalis, DIGSA); assay: as above; conditions: pre-emerge; for phytotoxicity rating DIGSA: 14 days after application, rating scale 0-100; for Pre-emerge Herbicidal Activity DIGSA: phytotoxicity rating 0-100 at 14 days after application
Outline: as §3

[18] = test system: velvetleaf (Abutilon theophrasti, ABUTH); assay: as above; conditions: pre-emerge; for phytotoxicity rating ABUTH: 14 days after application, rating scale 0-100; for Pre-emerge Herbicidal Activity ABUTH: phytotoxicity rating 0-100 at 14 days after application
Outline: as §3

[19] = test system: lambsquarters (Chenopodium album, CHEAL); assay: as above; conditions: pre-emerge; for phytotoxicity rating CHEAL: 14 days after application, rating scale 0-100; for Pre-emerge Herbicidal Activity CHEAL: phytotoxicity rating 0-100 at 14 days after application
Outline: as §3

[20] = test system: barnyardgrass (Echinochloa crus-galli, ECHCG); assay: as above; conditions: pre-emerge; for phytotoxicity rating ECHCG: 14 days after application, rating scale 0-100; for Pre-emerge Herbicidal Activity ECHCG: phytotoxicity rating 0-100 at 14 days after application
Outline: as §3

[21] = test system: upland rice (Oryza sp., var. Tebonnet, RICE); assay: Post-emerge test, crop safety; conditions: post-emerge, 14 days after application, rating scale 0-100
Outline: as §3

[22] = test system: field corn (Zea mays L., var. Dekalb 535, CORN); assay: Post-emerge test, crop safety; conditions: post-emerge, 14 days after application, rating scale 0-100
Outline: as §3

[23] = 63 g ai/ha, rating scale 0-100 (0 no damage, 100 complete death)
[24] = 250 g ai/ha, rating scale 0-100

COCC(C)=NNc1c(OC)c(Cl)cc(F)c1-n1c(=O)cc(C(F)(F)F)n(C)c1=O [15-13]
Post-emerge Herbicidal Activity SETVI (phytotoxicity rating) ([1]; 63 g ai/ha): 20
Post-emerge Herbicidal Activity SETVI (phytotoxicity rating) ([1]; 250 g ai/ha): 60
Post-emerge Herbicidal Activity IPOHE (phytotoxicity rating) ([2]; 63 g ai/ha): 100
Post-emerge Herbicidal Activity IPOHE (phytotoxicity rating) ([2]; 250 g ai/ha): 100
Post-emerge Herbicidal Activity CASOB (phytotoxicity rating) ([3]; 63 g ai/ha): 60
Post-emerge Herbicidal Activity CASOB (phytotoxicity rating) ([3]; 250 g ai/ha): 100
Post-emerge Herbicidal Activity SORHA (phytotoxicity rating) ([4]; 63 g ai/ha): 10
Post-emerge Herbicidal Activity SORHA (phytotoxicity rating) ([4]; 250 g ai/ha): 70
Post-emerge Herbicidal Activity AMARE (phytotoxicity rating) [5, 23]: 80
Post-emerge Herbicidal Activity AMARE (phytotoxicity rating) [5, 24]: 95
Post-emerge Herbicidal Activity DIGSA (phytotoxicity rating) ([6]; 63 g ai/ha): 10
Post-emerge Herbicidal Activity DIGSA (phytotoxicity rating) ([6]; 250 g ai/ha): 70
Post-emerge Herbicidal Activity ABUTH (phytotoxicity rating) ([7]; 63 g ai/ha): 100
Post-emerge Herbicidal Activity ABUTH (phytotoxicity rating) ([7]; 250 g ai/ha): 100
Post-emerge Herbicidal Activity CHEAL (phytotoxicity rating) ([8]; 63 g ai/ha): 95
Post-emerge Herbicidal Activity CHEAL (phytotoxicity rating) ([8]; 250 g ai/ha): 100
Post-emerge Herbicidal Activity ECHCG (phytotoxicity rating) ([9]; 63 g ai/ha): 20
Post-emerge Herbicidal Activity ECHCG (phytotoxicity rating) ([9]; 250 g ai/ha): 85
phytotoxicity rating AMARE ([10]; 46 g ai/ha): 100
phytotoxicity rating AMARE ([10]; 185 g ai/ha): 100
phytotoxicity rating RICE ([11]; 46 g ai/ha): 90
phytotoxicity rating RICE ([11]; 185 g ai/ha): 100
phytotoxicity rating CORN ([12]; 46 g ai/ha): 35
phytotoxicity rating CORN ([12]; 185 g ai/ha): 100
phytotoxicity rating SETVI ([13]; 46 g ai/ha): 100
phytotoxicity rating SETVI ([13]; 185 g ai/ha): 100
phytotoxicity rating IPOHE ([14]; 46 g ai/ha): 100
phytotoxicity rating IPOHE ([14]; 185 g ai/ha): 100
phytotoxicity rating CASOB ([15]; 46 g ai/ha): 100
phytotoxicity rating CASOB ([15]; 185 g ai/ha): 100
phytotoxicity rating SORHA ([16]; 46 g ai/ha): 99
phytotoxicity rating SORHA ([16]; 185 g ai/ha): 100
phytotoxicity rating DIGSA ([17]; 46 g ai/ha): 100
phytotoxicity rating DIGSA ([17]; 185 g ai/ha): 100
phytotoxicity rating ABUTH ([18]; 46 g ai/ha): 100
phytotoxicity rating ABUTH ([18]; 185 g ai/ha): 100
phytotoxicity rating CHEAL ([19]; 46 g ai/ha): 100
phytotoxicity rating CHEAL ([19]; 185 g ai/ha): 100
phytotoxicity rating ECHCG ([20]; 46 g ai/ha): 99
phytotoxicity rating ECHCG ([20]; 185 g ai/ha): 100
Post-emerge Herbicidal Activity RICE (crop damage rating) ([21]; 63 g ai/ha): 60
Post-emerge Herbicidal Activity RICE (crop damage rating) ([21]; 250 g ai/ha): 90
Post-emerge Herbicidal Activity CORN (crop damage rating) ([22]; 63 g ai/ha): 15
Post-emerge Herbicidal Activity CORN (crop damage rating) ([22]; 250 g ai/ha): 50

Cc1cccc(C)c1OC(=O)Nc1c(C)c(Cl)cc(F)c1-n1c(=O)cc(C(F)(F)F)n(C)c1=O [4-55]
phytotoxicity rating SETVI ([1]; 63 g ai/ha): 10
phytotoxicity rating SETVI ([1]; 250 g ai/ha): 40
phytotoxicity rating IPOHE ([2]; 63 g ai/ha): 40
phytotoxicity rating IPOHE ([2]; 250 g ai/ha): 85
phytotoxicity rating CASOB ([3]; 63 g ai/ha): 20
phytotoxicity rating CASOB ([3]; 250 g ai/ha): 40
phytotoxicity rating SORHA ([4]; 63 g ai/ha): 0
phytotoxicity rating SORHA ([4]; 250 g ai/ha): 10
phytotoxicity rating AMARE [5, 23]: 50
phytotoxicity rating AMARE [5, 24]: 80
phytotoxicity rating DIGSA ([6]; 63 g ai/ha): 0
phytotoxicity rating DIGSA ([6]; 250 g ai/ha): 10
phytotoxicity rating ABUTH ([7]; 63 g ai/ha): 100
phytotoxicity rating ABUTH ([7]; 250 g ai/ha): 100
phytotoxicity rating CHEAL ([8]; 63 g ai/ha): 50
phytotoxicity rating CHEAL ([8]; 250 g ai/ha): 90
phytotoxicity rating ECHCG ([9]; 63 g ai/ha): 0
phytotoxicity rating ECHCG ([9]; 250 g ai/ha): 20
Pre-emerge Herbicidal Activity AMARE ([10]; rate 63 g ai/ha): 30
Pre-emerge Herbicidal Activity AMARE ([10]; rate 250 g ai/ha): 90
Pre-emerge Herbicidal Activity RICE ([11]; rate 63 g ai/ha): 0
Pre-emerge Herbicidal Activity RICE ([11]; rate 250 g ai/ha): 60
Pre-emerge Herbicidal Activity CORN ([12]; rate 63 g ai/ha): 0
Pre-emerge Herbicidal Activity CORN ([12]; rate 250 g ai/ha): 30
Pre-emerge Herbicidal Activity SETVI ([13]; rate 63 g ai/ha): 40
Pre-emerge Herbicidal Activity SETVI ([13]; rate 250 g ai/ha): 90
Pre-emerge Herbicidal Activity IPOHE ([14]; rate 63 g ai/ha): 20
Pre-emerge Herbicidal Activity IPOHE ([14]; rate 250 g ai/ha): 70
Pre-emerge Herbicidal Activity CASOB ([15]; rate 63 g ai/ha): 0
Pre-emerge Herbicidal Activity CASOB ([15]; rate 250 g ai/ha): 30
Pre-emerge Herbicidal Activity SORHA ([16]; rate 63 g ai/ha): 0
Pre-emerge Herbicidal Activity SORHA ([16]; rate 250 g ai/ha): 60
Pre-emerge Herbicidal Activity DIGSA ([17]; rate 63 g ai/ha): 0
Pre-emerge Herbicidal Activity DIGSA ([17]; rate 250 g ai/ha): 70
Pre-emerge Herbicidal Activity ABUTH ([18]; rate 63 g ai/ha): 80
Pre-emerge Herbicidal Activity ABUTH ([18]; rate 250 g ai/ha): 100
Pre-emerge Herbicidal Activity CHEAL ([19]; rate 63 g ai/ha): 90
Pre-emerge Herbicidal Activity CHEAL ([19]; rate 250 g ai/ha): 100
Pre-emerge Herbicidal Activity ECHCG ([20]; rate 63 g ai/ha): 0
Pre-emerge Herbicidal Activity ECHCG ([20]; rate 250 g ai/ha): 30
phytotoxicity rating RICE (crop damage) ([21]; 63 g ai/ha): 0
phytotoxicity rating RICE (crop damage) ([21]; 250 g ai/ha): 35
phytotoxicity rating CORN (crop damage) ([22]; 63 g ai/ha): 10
phytotoxicity rating CORN (crop damage) ([22]; 250 g ai/ha): 5
